From ChEMBL document CHEMBL1909046, “DrugMatrix in vitro pharmacology data”

How the values were obtained:
[1] = molecular target: T1, Caspase-1 (Homo sapiens, UniProt P29466); parameters: species or system Escherichia coli;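 note: Caspase-1 enzyme inhibition assay with a peptide substrate; in other assays of this panel Not Active means under 50% inhibition at 10 µM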
T1 sequence (P29466 whole entry): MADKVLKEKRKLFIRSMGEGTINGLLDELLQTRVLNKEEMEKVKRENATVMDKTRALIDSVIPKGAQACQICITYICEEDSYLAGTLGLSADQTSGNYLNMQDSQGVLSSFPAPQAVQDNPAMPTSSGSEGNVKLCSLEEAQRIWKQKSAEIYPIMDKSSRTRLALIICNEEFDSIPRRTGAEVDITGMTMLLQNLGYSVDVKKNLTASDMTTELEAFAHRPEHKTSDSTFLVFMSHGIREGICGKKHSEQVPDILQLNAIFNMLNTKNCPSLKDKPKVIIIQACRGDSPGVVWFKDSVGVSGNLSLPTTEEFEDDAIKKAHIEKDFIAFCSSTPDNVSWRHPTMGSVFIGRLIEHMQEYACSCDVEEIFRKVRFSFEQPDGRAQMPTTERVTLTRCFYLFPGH

[2] = molecular target: T2, Alpha-2A adrenergic receptor (Homo sapiens, UniProt P08913); assay type: cell membranes, Sf9, Membrane; details: sf9; note: in other assays of this panel Not Active means under 50% inhibition at 10 µM
T2 sequence (P08913 whole entry): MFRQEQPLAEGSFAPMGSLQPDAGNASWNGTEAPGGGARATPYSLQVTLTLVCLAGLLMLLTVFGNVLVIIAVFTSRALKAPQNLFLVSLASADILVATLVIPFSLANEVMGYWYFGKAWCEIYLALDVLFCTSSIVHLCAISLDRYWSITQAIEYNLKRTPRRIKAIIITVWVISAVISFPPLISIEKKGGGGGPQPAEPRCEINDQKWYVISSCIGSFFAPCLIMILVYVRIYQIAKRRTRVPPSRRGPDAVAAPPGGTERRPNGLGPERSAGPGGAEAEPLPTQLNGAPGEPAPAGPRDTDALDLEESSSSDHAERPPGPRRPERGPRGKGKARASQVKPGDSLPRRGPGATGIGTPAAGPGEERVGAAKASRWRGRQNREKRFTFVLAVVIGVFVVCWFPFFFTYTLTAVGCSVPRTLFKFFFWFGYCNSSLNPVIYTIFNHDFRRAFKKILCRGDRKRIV

[3] = DRUGMATRIX: Calcium Channel Type L, Dihydropyridine radioligand binding (ligand: [3H] Nitrendipine); assay type: cell membranes, Rattus norvegicus, Wistar, Cerebral cortex, Membrane; details: Not Active = under 50% inhibition at 10 µM
[4] = DRUGMATRIX: Tumor Necrosis Factor (TNF), Non-Selective radioligand binding (ligand: [125I] TNF-alpha); assay type: cell membranes, Membrane; details: u-937; Not Active = under 50% inhibition at 10 µM
[5] = molecular target: Beta-3 adrenergic receptor (Homo sapiens, UniProt P13945); experiment: DRUGMATRIX: Adrenergic beta3 radioligand binding (ligand: [125I] Cyanopindolol); assay type: cell membranes, HEK293, Membrane; details: hek293; Not Active = under 50% inhibition at 10 µM
[6] = molecular target: Beta-1 adrenergic receptor (Homo sapiens, UniProt P08588); experiment: DRUGMATRIX: Adrenergic beta1 radioligand binding (ligand: [125I] Cyanopindolol); assay type: cell membranes, CHO-K1, Membrane; details: cho-k1; Not Active = under 50% inhibition at 10 µM
Sequence of Beta-1 adrenergic receptor (P08588 whole entry): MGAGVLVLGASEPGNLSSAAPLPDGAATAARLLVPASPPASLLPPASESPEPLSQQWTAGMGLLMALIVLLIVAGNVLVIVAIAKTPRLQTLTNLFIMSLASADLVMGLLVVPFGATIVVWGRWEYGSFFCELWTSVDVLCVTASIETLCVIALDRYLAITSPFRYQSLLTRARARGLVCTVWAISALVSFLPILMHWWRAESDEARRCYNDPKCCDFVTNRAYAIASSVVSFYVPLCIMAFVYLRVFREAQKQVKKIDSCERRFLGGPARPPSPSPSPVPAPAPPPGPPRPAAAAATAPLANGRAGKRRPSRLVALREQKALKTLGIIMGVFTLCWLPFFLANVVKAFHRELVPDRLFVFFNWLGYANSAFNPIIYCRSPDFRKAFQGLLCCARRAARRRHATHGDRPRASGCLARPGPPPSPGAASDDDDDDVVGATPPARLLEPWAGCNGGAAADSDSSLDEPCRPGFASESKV

Sequence of Beta-3 adrenergic receptor (P13945 whole entry): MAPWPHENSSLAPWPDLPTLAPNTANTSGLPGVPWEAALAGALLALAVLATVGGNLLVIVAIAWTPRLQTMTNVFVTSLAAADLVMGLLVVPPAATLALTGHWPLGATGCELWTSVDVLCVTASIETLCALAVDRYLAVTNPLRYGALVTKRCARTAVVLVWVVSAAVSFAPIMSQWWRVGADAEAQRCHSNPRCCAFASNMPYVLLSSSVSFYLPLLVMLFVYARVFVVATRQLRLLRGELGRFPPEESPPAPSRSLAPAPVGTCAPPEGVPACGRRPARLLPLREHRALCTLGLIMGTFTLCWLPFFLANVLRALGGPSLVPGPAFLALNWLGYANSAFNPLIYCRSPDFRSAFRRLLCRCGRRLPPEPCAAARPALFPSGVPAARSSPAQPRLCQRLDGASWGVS

CCOC(=O)[C@H](CCc1ccccc1)N[C@@H](C)C(=O)N1CCC[C@H]1C(=O)O
Not Active: IC50 [1] | IC50 [2] | IC50 [3] | Ki [3] | IC50 [4] | Ki [4] | IC50 [5] | IC50 [6]

POLYVINYL ALCOHOL
Not Active: IC50 [1] | Ki [1] | IC50 [2] | Ki [2] | IC50 [3] | Ki [3] | IC50 [4] | Ki [4] | IC50 [5] | Ki [5] | IC50 [6] | Ki [6]

CCC[C@@H]1C[C@@H](C(=O)N[C@@H]([C@H]2O[C@H](SC)[C@H](O)[C@@H](O)[C@H]2O)[C@H](C)Cl)N(C)C1 [CLINDAMYCIN]
Not Active: IC50 [1] | IC50 [2] | IC50 [3] | Ki [3] | IC50 [4] | Ki [4] | IC50 [5] | IC50 [6]

CN(Cc1cnc2nc(N)nc(N)c2n1)c1ccc(C(=O)N[C@@H](CCC(=O)O)C(=O)O)cc1 [METHOTREXATE]
Not Active: IC50 [1] | IC50 [2] | IC50 [3] | Ki [3] | IC50 [4] | Ki [4] | IC50 [5] | IC50 [6]

CO[C@@]1(NC(=O)CSCC#N)C(=O)N2C(C(=O)O)=C(CSc3nnnn3C)CS[C@@H]21 [CEFMETAZOLE]
Not Active: IC50 [1] | IC50 [2] | IC50 [3] | Ki [3] | IC50 [4] | Ki [4] | IC50 [5] | IC50 [6]

C[C@@H]1CC[C@H]2[C@@H](C)C(=O)O[C@@H]3O[C@@]4(C)CC[C@@H]1[C@]32OO4 [ARTEMISININ]
Not Active: IC50 [1] | IC50 [2] | IC50 [3] | Ki [3] | IC50 [4] | Ki [4] | IC50 [5] | IC50 [6]

CC(C(=O)O)c1ccc(CC2CCCC2=O)cc1 (stereo not drawn) [LOXOPROFEN]
Not Active: IC50 [1] | IC50 [2] | IC50 [3] | Ki [3] | IC50 [4] | Ki [4] | IC50 [5] | IC50 [6]

CCCCCC[C@H]1C(=O)O[C@H](C)[C@H](NC(=O)c2cccc(NC=O)c2O)C(=O)O[C@@H](C)[C@@H]1OC(=O)CC(C)C [ANTIMYCIN A]
Not Active: IC50 [1] | IC50 [2] | IC50 [3] | Ki [3] | IC50 [4] | Ki [4] | IC50 [5] | IC50 [6]

C#C[C@]1(O)CC[C@H]2[C@@H]3CCc4cc(O)ccc4[C@H]3CC[C@@]21C [ETHINYL ESTRADIOL]
Not Active: IC50 [1] | IC50 [2] | IC50 [3] | Ki [3] | IC50 [4] | Ki [4] | IC50 [5] | IC50 [6]

CC[C@H]1OC(=O)[C@H](C)[C@@H](O[C@H]2C[C@@](C)(OC)[C@@H](O)[C@H](C)O2)[C@H](C)[C@@H](O[C@@H]2O[C@H](C)C[C@H](N(C)C)[C@H]2O)[C@](C)(O)C[C@@H](C)CN(C)[C@H](C)[C@@H](O)[C@]1(C)O [AZITHROMYCIN]
Not Active: IC50 [1] | IC50 [2] | IC50 [3] | Ki [3] | IC50 [4] | Ki [4] | IC50 [5] | IC50 [6]

COc1ccc2cc(CCC(C)=O)ccc2c1 [NABUMETONE]
Not Active: IC50 [1] | IC50 [2] | IC50 [3] | Ki [3] | IC50 [4] | Ki [4] | IC50 [5] | IC50 [6]

CCCCC1C(=O)N(c2ccccc2)N(c2ccccc2)C1=O [PHENYLBUTAZONE]
Not Active: IC50 [1] | IC50 [2] | IC50 [3] | Ki [3] | IC50 [4] | Ki [4] | IC50 [5] | IC50 [6]

C=C1/C(=C\C=C2/CCC[C@]3(C)[C@@H]([C@H](C)CCCC(C)C)CC[C@@H]23)C[C@@H](O)C[C@@H]1O [ALFACALCIDOL]
Not Active: IC50 [1] | IC50 [2] | IC50 [3] | Ki [3] | IC50 [4] | Ki [4] | IC50 [5] | IC50 [6]
